Results from patent US10238676B2, “Application of ginsenoside RG3 in preparing medicine for preventing and/or treating dementia, and medicine for treating dementia” (priority 2013, dated 2019).

Tests used:
[1] = system: intracerebral cholinergic nerve system of rat model with Alzheimer's disease; test: AChE positive nerve fiber density of cortex and hippocampal formation, rat model with Alzheimer's disease (D-galactose + IBO); format: in vivo, Wistar rats; settings: AD model rats, Huperzine A 0.3 mg/kg/d, 6 weeks
From the text: 60 Wistar rats each of which having the body weight of 300-500 g are randomly divided into 6 groups, with 10 in each group, and the groups are named a preliminary elder normal control group, a preliminary elder AD model group, a positive medicine Huperzine A group, and high-dose, medium-dose and low-dose of Ginsenoside Rg3 topical preparation groups according to different treatment methods, respectively. The rats are bred in separate cages, each holding 4-5 rats, with natural lighting and random drinking and feeding provided. Physiological saline is injected in the abdominal cavity and grain of each rat in the preliminary elder normal control group; Galactose intraperitoneal injection and IBO intracerebral injection are given to all rats in the preliminary elder AD model group, the positive medicine Huperzine A group, and the high-dose, medium-dose and low-dose Ginsenoside Rg3 topical preparation groups; while the rats in the Huperzine A group and the high-dose, medium-dose and low-dose of Ginsenoside Rg3 topical preparation groups are subjected to D-galactose injection for modeling, rat of each group is given Huperzine A 0.3 mg/kg/d and Ginsenoside Rg3 10, 5, 2.5 mg/kg/d respectively. Ginsenoside Rg3 is applied to both sides of the nose of each rat of Ginsenoside Rg3 topical preparation groups. All the rats are subjected to the medicines continuously for 6 weeks and then intracerebral bilateral Meynert nuclei injection is carried out. Reference is made to a rat cerebral stereotaxic atlas for Meynert nuclei localization, and localization coordinates are AP-0.8 mm, Late 2.6 mm and DV 8.2 mm During intracerebral injection, a rat is anesthetized with 3% pentobarbital sodium (30 mg/kg) and then immobilized to a cerebral stereotaxic apparatus, physiological saline dissolved IBO (injection 1 μl for each side containing 5 μg of IBO) or 1 μl normal saline is injected slowly into a Meynert nucleus, each side takes injection for 5 minutes, and needle retaining for 10 minutes, wherein all the rats are subjected to cerebral perfusion with 4% paraformaldehyde after modeling and are then immobilized for 24 hours, and the brain is put in a sucrose phosphate buffer until brain tissue blocks sink, the blocks are frozen in a incubator and serially sectioned to […] in thickness. The sections are subjected to acetycholinesterase (AChE) histochemical staining by methods recommended by Hedreen, et al. Observation is given to the frontal lobe, the parietal lobe, the occipital lobe and the entorhinal cortex (layer II) as well as parts in a hippocampal CA1 region of the hippocampal formation such as a stratum oriens, a stratum radiatum, a stratum lacunosum-moleculare and a stratum moleculare of dentate gyrus for observing their AChE positive nerve fiber densities, and the AChE positive nerve fiber densities are counted with a number of intersections of positive fibers with a standard grid by using a micrometer used for a microscope.
A significance level a is equal to 0.05.

[2] = system: patients with Alzheimer's disease; test: Revised Hasegawa dementia scale (HDS-R) scoring of patients with Alzheimer's disease; format: in vivo, human
Experimental: Both groups take medicine for 12 continuous weeks. 2 ml of cerebrospinal fluid is collected by lumbar puncture, and is stored at −80° C., the β-amyloid protein (Aβ) content is determined by using enzyme-linked immunosorbent assay (ELISA). A revised Hasegawa dementia scale (HDS-R) is used to score, and the scores before and after treatment are compared, increasing in scores means validness, and unchanging or decreasing in scores means invalidness. The enumeration data adopts χ^2 test, the comparison of measurement data adopts t-test, all data is processed by adopting SPSS12.0 statistical software.
Analysis on the clinical therapeutic effect of the two groups.

rat blood-brain barrier = settings: rats drenched with borneolum syntheticum paraffin oil solution; cited from earlier work
[3] = of 18 patients per group, 12 weeks

Which results are given for `C/C=C1\[C@H]2C=C(C)C[C@]1(N)c1ccc(=O)[nH]c1C2` [Huperzine, Huperzine A, reference compound]?
N Entorhinal cortex AchE positive nerve fiber density [1]: 132.4 ± 19.2^# 10^2 · mm^−2; N Frontal lobe AchE positive nerve fiber density [1]: 122.1 ± 16.1^## 10^2 · mm^−2; N Occipital lobe AchE positive nerve fiber density [1]: 131.6 ± 9.0^Δ 10^2 · mm^−2; Parietal lobe AchE positive nerve fiber density [1]: 108.7 ± 15.8^##Δ 10^2 · mm^−2; N Stratum lacunosum-moleculare AchE positive nerve fiber density ([1]; hippocampal formation): 83.3 ± 9.6 10^2 · mm^−2; N Stratum moleculare of dentate gyrus AchE positive nerve fiber density ([1]; hippocampal formation): 120.0 ± 10.7^# 10^2 · mm^−2; N Stratum oriens AchE positive nerve fiber density ([1]; hippocampal formation): 138.7 ± 20.1 10^2 · mm^−2; N Stratum radiatum AchE positive nerve fiber density ([1]; hippocampal formation): 121.1 ± 15.2 10^2 · mm^−2

With `COc1cc2c(cc1OC)C(=O)C(CC1CCN(Cc3ccccc3)CC1)C2` (centres unmarked) [Donepezil, donepezil, reference compound] as the compound, how does the “effective rate (patients increased in HDS-R scores)” value ([2]; 18 AD patients per group, Rg3 oral liquid 10 mg/d or donepezil 5 mg/d, 12 weeks) read?
The value was 72.2%.

What about the “Scores of clinical symptom (HDS-R), post treatment” value ([2]; AD inpatients, n = 18, Rg3 oral liquid 10 mg/d or donepezil 5 mg/d orally, 12 weeks) of the same compound?
Its value is 17.3 ± 9.6.

And the “Scores of clinical symptom (HDS-R), before treatment” value ([2]; AD inpatients, n = 18 per group, baseline)?
Its value is 13.5 ± 4.2^Δ.

What about the “number of patients constant in scores” value [2, 3] of the same compound?
The value was 3.

What about the “number of patients decreased in scores” value [2, 3] of the same compound?
The value was 2.

And the “number of patients increased in scores of clinical symptom” value [2, 3]?
Its value is 13.

With `CC1(C)C2CCC1(C)C(O)C2` (centres unmarked) [borneolum syntheticum] as the compound, how does the “time after drench at which tight junction changes start” value (rat blood-brain barrier) read?
Its value is 4 h.

And the “time at which tight junction changes reach peak” value (rat blood-brain barrier)?
The value was 8 h.

What about the “time at which tight junction returns to normal” value (rat blood-brain barrier) of the same compound?
The value was 48 h.
